Results reported in article PMC7880690, “Chemical genetics and proteome-wide site mapping reveal cysteine MARylation by PARP-7 on immune-relevant protein targets” (eLife, 2021).

Legend:
[1] = target: T1, PARP-7 (Homo sapiens, UniProt Q7Z3E1); details: 1 μM, HEK 293 T cells
T1 sequence (Q7Z3E1 1-657): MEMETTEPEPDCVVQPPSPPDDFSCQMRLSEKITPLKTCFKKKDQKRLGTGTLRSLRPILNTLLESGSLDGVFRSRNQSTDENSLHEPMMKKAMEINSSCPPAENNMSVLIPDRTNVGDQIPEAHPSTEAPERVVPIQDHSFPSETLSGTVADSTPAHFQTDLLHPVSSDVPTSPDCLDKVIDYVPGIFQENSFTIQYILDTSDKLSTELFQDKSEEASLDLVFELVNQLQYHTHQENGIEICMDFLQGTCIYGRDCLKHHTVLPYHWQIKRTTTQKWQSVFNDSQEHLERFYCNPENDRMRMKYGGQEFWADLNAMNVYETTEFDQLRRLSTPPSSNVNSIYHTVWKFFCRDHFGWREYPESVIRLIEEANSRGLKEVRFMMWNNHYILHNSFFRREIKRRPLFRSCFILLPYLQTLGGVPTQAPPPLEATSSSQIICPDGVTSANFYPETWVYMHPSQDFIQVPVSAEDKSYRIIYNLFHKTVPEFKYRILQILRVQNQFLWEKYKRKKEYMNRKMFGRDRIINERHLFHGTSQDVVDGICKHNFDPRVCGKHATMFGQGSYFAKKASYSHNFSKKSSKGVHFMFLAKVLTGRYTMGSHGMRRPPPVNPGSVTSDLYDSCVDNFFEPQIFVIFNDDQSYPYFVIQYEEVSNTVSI

[2] = target: T2, PARP3FL (Homo sapiens, UniProt Q9Y6F1); assay: ADP-ribosylation plate assay, PARP3FL
T2 sequence (Q9Y6F1 1-533): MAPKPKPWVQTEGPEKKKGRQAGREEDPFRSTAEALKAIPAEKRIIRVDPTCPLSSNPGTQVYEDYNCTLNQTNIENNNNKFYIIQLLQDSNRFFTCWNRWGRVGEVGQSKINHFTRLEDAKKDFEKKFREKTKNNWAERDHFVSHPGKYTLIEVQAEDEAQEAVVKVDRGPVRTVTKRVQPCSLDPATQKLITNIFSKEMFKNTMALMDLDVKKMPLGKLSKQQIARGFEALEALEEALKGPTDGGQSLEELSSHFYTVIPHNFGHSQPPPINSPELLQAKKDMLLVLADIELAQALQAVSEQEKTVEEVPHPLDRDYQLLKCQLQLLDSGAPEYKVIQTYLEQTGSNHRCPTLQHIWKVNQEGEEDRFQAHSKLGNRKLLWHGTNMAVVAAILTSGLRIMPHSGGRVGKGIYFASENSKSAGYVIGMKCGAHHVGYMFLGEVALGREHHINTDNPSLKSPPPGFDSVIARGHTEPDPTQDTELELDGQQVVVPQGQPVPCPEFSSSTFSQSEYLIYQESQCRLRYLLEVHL

[3] = target: T3, PARP-10 (Homo sapiens, UniProt Q53GL7); assay: Auto-MARylation of PARP-10 in GFP-PARP-10 expressing HEK 293 T cells, western blot with ADPr antibody
T3 sequence (Q53GL7 1-1025): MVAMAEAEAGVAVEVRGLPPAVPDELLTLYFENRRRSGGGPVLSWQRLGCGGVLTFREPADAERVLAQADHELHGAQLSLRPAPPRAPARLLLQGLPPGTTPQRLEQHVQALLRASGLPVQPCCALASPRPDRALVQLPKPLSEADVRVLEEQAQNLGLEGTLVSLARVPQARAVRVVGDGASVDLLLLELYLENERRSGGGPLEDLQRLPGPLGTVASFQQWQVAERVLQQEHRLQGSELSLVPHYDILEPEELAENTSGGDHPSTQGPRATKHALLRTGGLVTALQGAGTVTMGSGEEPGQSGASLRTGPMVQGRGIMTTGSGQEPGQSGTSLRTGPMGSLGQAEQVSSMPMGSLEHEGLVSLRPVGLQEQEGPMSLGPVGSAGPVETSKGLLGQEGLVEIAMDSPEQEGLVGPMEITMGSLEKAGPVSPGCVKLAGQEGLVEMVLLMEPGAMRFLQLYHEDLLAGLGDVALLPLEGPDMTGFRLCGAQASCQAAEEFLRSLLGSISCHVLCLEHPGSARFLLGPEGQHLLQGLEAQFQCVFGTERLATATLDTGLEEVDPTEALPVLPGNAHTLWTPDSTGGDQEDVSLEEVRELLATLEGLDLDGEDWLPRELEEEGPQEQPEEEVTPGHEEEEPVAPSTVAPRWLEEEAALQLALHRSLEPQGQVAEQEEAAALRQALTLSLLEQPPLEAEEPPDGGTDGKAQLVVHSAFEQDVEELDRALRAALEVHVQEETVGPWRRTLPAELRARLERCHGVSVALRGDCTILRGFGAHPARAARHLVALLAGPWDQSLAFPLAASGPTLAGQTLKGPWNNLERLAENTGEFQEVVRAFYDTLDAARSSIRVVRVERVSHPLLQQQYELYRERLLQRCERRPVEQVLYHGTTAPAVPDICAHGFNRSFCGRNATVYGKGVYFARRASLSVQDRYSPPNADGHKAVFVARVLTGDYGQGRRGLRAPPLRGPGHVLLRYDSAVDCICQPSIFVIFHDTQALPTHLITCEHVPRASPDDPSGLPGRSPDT

With N#Cc1ccc(N2CCN(C(=O)c3cc(Cc4n[nH]c(=O)c5ccccc45)ccc3F)CC2)nc1 [Phthal01, 6-(4-(2-fluoro-5-((4-oxo-3,4-dihydrophthalazin-1-yl)methyl)benzoyl)piperazin-1-yl)nicotinonitrile] the “inhibition of PARP-7-mediated trans-MARylation of PARP-13.2” value [1] was “completely inhibits”, the IC50 [2] was 320 ± 2 nM and the EC50 [3] was ~3000 nM.
